Reference: patent US7138361B2, “Herbicidal heterocycles” (E. I. du Pont de Nemours and Company, priority 2000, dated 2006)

Columns and labels:
Format in all cases: in vivo
[1] = system: morning glory (Ipomoea spp.); experiment: Test A postemergence, sprayed to runoff; parameters: scale not given here; settings: Morningglory, approx. eleven days
Description: (§1) Seeds of barnyardgrass (Echinochloa crus-galli), crabgrass (Digitaria spp.), giant foxtail (Setaria viridis), morning glory (Ipomoea spp.), redroot pigweed (Amaranthus retroflexus) and velvetleaf (Abutilon theophrasti) were planted into a sandy loam soil and treated preemergence by soil drench with test chemicals formulated in a non-phytotoxic solvent mixture which included a surfactant. At the same time, these crop and weed species were also treated postemergence sprayed to runoff with test chemicals formulated in the same manner. Plants ranged in height from two to eighteen cm and were in the one- to two-leaf stage for the postemergence treatment. Treated plants and untreated controls were maintained in a greenhouse for approximately eleven days, after which time all treated plants were compared to untreated controls and visually evaluated for injury. Plant response ratings, summarized in Table A, are based on a 0 to 10 scale where 0 is no effect and 10 is complete control. A dash (-) response means no test results.

[2] = system: velvetleaf (Abutilon theophrasti); experiment: Test A postemergence, sprayed to runoff; parameters: scale not given here; settings: approx. eleven days
Description: as §1

[3] = system: giant foxtail (Setaria viridis); experiment: Test A postemergence, sprayed to runoff; settings: approx. eleven days
Description: as §1

[4] = system: redroot pigweed (Amaranthus retroflexus); experiment: Test A postemergence, sprayed to runoff; settings: approx. eleven days
Description: as §1

[5] = system: barnyardgrass (Echinochloa crus-galli); experiment: Test A postemergence, sprayed to runoff; settings: approx. eleven days
Description: as §1

[6] = system: crabgrass (Digitaria spp.); experiment: Test A postemergence, sprayed to runoff; settings: approx. eleven days
Description: as §1

[7] = system: smallflower flatsedge (Cyperus difformis); experiment: Test B flooded paddy test; settings: Rate 1000 g/ha, scale of 0 to 100 where 0 is no effect and 100 is complete control, visually evaluated after 13 to 15 days
Procedure, shortened: (§2)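 Treatment: formulated chemical applied to flooded paddy plants at 2-leaf stage. Hold: greenhouse, 13–15 days. Scoring: visual comparison to controls, 0 (no effect) to 100 (complete control).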

[8] = system: rice (Oryza saliva); experiment: Test B flooded paddy test; settings: Rate 1000 g/ha, scale of 0 to 100 where 0 is no effect and 100 is complete control, visually evaluated after 13 to 15 days
Procedure, shortened: as §2

[9] = system: barnyardgrass (Echinochloa crus-galli); experiment: Test B flooded paddy test; settings: Rate 1000 g/ha, scale of 0 to 100 where 0 is no effect and 100 is complete control, visually evaluated after 13 to 15 days
Procedure, shortened: as §2

[10] = system: duck salad (Heteranthera limosa); experiment: Test B flooded paddy test; settings: Rate 1000 g/ha, scale of 0 to 100 where 0 is no effect and 100 is complete control, visually evaluated after 13 to 15 days
Procedure, shortened: as §2

[11] = system: Nightshade; experiment: Test C preemergence; settings: Rate 500 g/ha, visual evaluation after 12 to 14 days
[12] = system: smallflower flatsedge (Cyperus difformis); experiment: Test C flooded paddy test; settings: for Flatsedge plant response rating: Flooded Paddy, scale 0 to 100, 0 no effect, 100 complete control; for Plant response rating, Flatsedge: flooded paddy test, scale 0 to 100 (0 no effect, 100 complete control)
Procedure, shortened: (§3)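 Ratings come from visual comparison with control plants after 12 to 14 days in the greenhouse. Each species was at the 2-leaf stage when the flooded paddy was treated. Scores run from 0, meaning no effect, to 100, meaning complete control.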

[13] = system: rice (Oryza saliva); experiment: Test C flooded paddy test; settings: for Rice plant response rating: Flooded Paddy, scale 0 to 100, 0 no effect, 100 complete control; for Plant response rating, Rice: flooded paddy test, scale 0 to 100 (0 no effect, 100 complete control)
Procedure, shortened: as §3

[14] = system: barnyardgrass (Echinochloa crus-galli); experiment: Test C flooded paddy test; settings: for Barnyardgrass plant response rating: Flooded Paddy, scale 0 to 100, 0 no effect, 100 complete control; for Plant response rating, Barnyardgrass: flooded paddy test, scale 0 to 100 (0 no effect, 100 complete control)
Procedure, shortened: as §3

[15] = system: duck salad (Heteranthera limosa); experiment: Test C flooded paddy test; settings: for Ducksalad plant response rating: Flooded Paddy, scale 0 to 100, 0 no effect, 100 complete control; for Plant response rating, Ducksalad: flooded paddy test, scale 0 to 100 (0 no effect, 100 complete control)
Procedure, shortened: as §3

[16] = system: Sunflower; experiment: Test C preemergence; settings: Rate 250 g/ha, scale 0 to 100, 0 no effect, 100 complete control
[17] = system: Sunflower; experiment: Test C preemergence; settings: Rate 62 g/ha, scale 0 to 100

Compound	Plant response rating (visual injury vs untreated controls) ([1]; Rate 500 g/ha)	Plant response rating (visual injury vs untreated controls) ([1]; Rate 2000 g/ha)	Plant response rating (visual injury vs untreated controls) ([2]; Rate 500 g/ha)	Plant response rating (visual injury vs untreated controls) ([2]; Rate 2000 g/ha)	Plant response rating (visual injury vs untreated controls) ([3]; Rate 500 g/ha)	Plant response rating (visual injury vs untreated controls) ([3]; Rate 2000 g/ha)	Plant response rating (visual injury vs untreated controls) ([4]; Rate 500 g/ha)	Plant response rating (visual injury vs untreated controls) ([4]; Rate 2000 g/ha)	Plant response rating (visual injury vs untreated controls) ([5]; Rate 500 g/ha)	Plant response rating (visual injury vs untreated controls) ([5]; Rate 2000 g/ha)	Plant response rating (visual injury vs untreated controls) ([6]; Rate 500 g/ha)	Plant response rating (visual injury vs untreated controls) ([6]; Rate 2000 g/ha)	Plant response rating, Flatsedge [7]	Plant response rating, Rice [8]	Plant response rating, Barnyardgrass [9]	Plant response rating, Ducksalad [10]	further results
CCC(C)c1nn(C2CCN(c3cccc(C(F)(F)F)c3)C2=O)cc1Cl (stereo not drawn) [Compound 13]	0	0	0	0	0	0	20	70	0	0	0	0	0	0	0	0	–
CC(C)(C)c1ccn(C2CCN(c3cccc(I)c3)C2=O)n1 (stereo not drawn) [Compound 88]	10	30	0	0	40	90	80	100	30	80	20	40	–	–	–	–	Plant response rating (0 to 100), Nightshade [11]: 80; Flatsedge plant response rating ([12]; Rate 250 g/ha): 100; Flatsedge plant response rating ([12]; Rate 500 g/ha): 100; Plant response rating, Flatsedge ([12]; Rate 62 g/ha): 90; Plant response rating, Flatsedge ([12]; Rate 125 g/ha): 90; Rice plant response rating ([13]; Rate 250 g/ha): 30; Rice plant response rating ([13]; Rate 500 g/ha): 70; Plant response rating, Rice ([13]; Rate 62 g/ha): 0; Plant response rating, Rice ([13]; Rate 125 g/ha): 20; Barnyardgrass plant response rating ([14]; Rate 250 g/ha): 100; Barnyardgrass plant response rating ([14]; Rate 500 g/ha): 100; Plant response rating, Barnyardgrass ([14]; Rate 62 g/ha): 30; Plant response rating, Barnyardgrass ([14]; Rate 125 g/ha): 100; Ducksalad plant response rating ([15]; Rate 250 g/ha): 60; Ducksalad plant response rating ([15]; Rate 500 g/ha): 60; Plant response rating, Ducksalad ([15]; Rate 62 g/ha): 0; Plant response rating, Ducksalad ([15]; Rate 125 g/ha): 10; Plant response rating, Sunflower [16]: 20; Plant response rating, Sunflower [17]: 10
Cc1ccn(C2CCN(c3cccc(C(F)(F)F)c3)C2=O)n1 (stereo not drawn) [Compound 16]	20	20	0	20	0	30	0	0	0	10	10	20	0	0	0	0	–
CC(C)(C)c1nn(C2CCN(c3cccc(C(F)(F)F)c3)C2=O)cc1Cl (stereo not drawn) [Compound 14]	0	0	0	0	0	0	0	20	0	0	0	0	0	0	0	0	–
O=C1C(n2cc(Cl)c(C3CC3)n2)CCN1c1cccc(C(F)(F)F)c1 (stereo not drawn) [Compound 12]	0	0	0	0	0	0	0	0	0	0	0	0	30	0	0	0	–
CC(C)(C)c1ccn(C2OCN(c3cccc(C(F)(F)F)c3)C2=O)n1 (stereo not drawn) [compound 9]	10	10	0	40	30	100	20	80	80	90	20	10	100	100	100	100	–
